This is an account of results in patent US11173145B2, “Compounds useful as inhibitors of indoleamine 2,3-dioxygenase and/or tryptophan dioxygenase” (Board of Regents, The University of Texas System, priority 2017, dated 2021).

The structures appear in SMILES notation.

T1 sequence (P14902 whole entry): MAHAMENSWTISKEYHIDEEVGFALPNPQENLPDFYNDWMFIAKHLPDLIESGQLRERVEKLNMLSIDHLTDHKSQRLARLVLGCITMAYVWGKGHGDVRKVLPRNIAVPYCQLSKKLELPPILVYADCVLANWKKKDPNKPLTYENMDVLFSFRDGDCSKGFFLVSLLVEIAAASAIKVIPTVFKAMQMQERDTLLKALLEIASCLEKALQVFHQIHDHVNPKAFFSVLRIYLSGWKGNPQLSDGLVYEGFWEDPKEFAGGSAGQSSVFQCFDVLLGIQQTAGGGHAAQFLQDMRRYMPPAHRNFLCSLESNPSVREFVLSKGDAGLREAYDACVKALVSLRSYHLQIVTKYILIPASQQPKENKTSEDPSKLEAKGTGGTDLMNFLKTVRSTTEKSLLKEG

This experiment concerns the target T1, IDO1 (Homo sapiens, UniProt P14902).
T1 construct: endogenous in cells; host or cells: HeLa cells (ATCC), IFNgamma-induced
Briefly: IDO1 cell-based assay (HeLa cells, IFNgamma-induced, N-formylkynurenine/L-tryptophan by RFMS). The note with it: 10 ng/mL IFNgamma, 24 hours. In a few lines: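 HeLa cells stimulated with 10 ng/mL IFNgamma and exposed to compound (0.5% DMSO final) for 24 h at 37 °C. Conditioned media deproteinized, then N-formylkynurenine and L-tryptophan quantified by RapidFire MS with deuterated tryptophan internal standard; IC50 by curve fitting. Viability checked by CellTiter-Glo.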
On to `CC[C@@H](NC(=O)c1ccc(Cl)cc1)[C@H]1[C@@H]2C[C@@H](n3c(C(F)(F)F)nc4ccc(F)cc43)C[C@@H]21` [Compound 276, 4-chloro-N-((R)-1-((1R,3S,5S,6r)-3-(6-fluoro-2-(trifluoromethyl)-1H-benzo[d]imidazol-1-yl)bicyclo[3.1.0]hexan-6-yl)propyl)benzamide], for which the IC50 was in the range of 200 to 2000 nM.

`CC[C@@H](NC(=O)c1ccnc(C)c1)[C@H]1[C@@H]2C[C@@H](n3cnc4cc(F)c(F)cc43)C[C@@H]21` [Compound 308, N-((R)-1-((1R,3S,5S,6r)-3-(5,6-difluoro-1H-benzo[d]imidazol-1-yl)bicyclo[3.1.0]hexan-6-yl)propyl)-2-methylisonicotinamide] showed a half-inhibitory concentration (IC50) of 200 to 2000 nM. `CC[C@@H](NC(=O)c1ccc(Cl)cc1)[C@H]1[C@@H]2C[C@@H](NC(=O)c3ncccc3F)C[C@@H]21` [Compound 327, N-((1R,3S,5S,6r)-6-((R)-1-(4-chlorobenzamido)propyl)bicyclo[3.1.0]hexan-3-yl)-3-fluoropicolinamide] yielded an IC50 of under 200 nM. The same measure for `O=C(Cc1ncc(Cl)cc1F)NC1C2CN(c3ccnc4ccc(F)cc34)CC21` (stereo not drawn) [Compound 112, 2-(5-chloro-3-fluoropyridin-2-yl)-N-(3-(6-fluoroquinolin-4-yl)-3-azabicyclo[3.1.0]hexan-6-yl)acetamide]: over 5000 nM; for `CCC(NC(=O)c1ccc(Cl)cc1)[C@H]1[C@@H]2C[C@@H](NC(=O)N3CCOCC3)C[C@@H]21` (stereo partly drawn) [Compound 157, N-((1R,3s,5S,6r)-6-(1-(4-chlorobenzamido)propyl)bicyclo[3.1.0]hexan-3-yl)morpholine-4-carboxamide]: 200 to 2000 nM. The same measure for `CC[C@@H](NC(=O)NC1COC1)[C@H]1[C@@H]2C[C@@H](n3cnc4cc(F)c(F)cc43)C[C@@H]21` [Compound 353, 1-((R)-1-((1R,3S,5S,6r)-3-(5,6-difluoro-1H-benzo[d]imidazol-1-yl)bicyclo[3.1.0]hexan-6-yl)propyl)-3-(oxetan-3-yl)urea]: over 5000 nM; for `Cc1ccc(C(=O)NC[C@@H]2[C@H]3C[C@H](n4cnc5cc(F)c(F)cc54)C[C@@H]23)cn1` [Compound 317, N-(((1R,3s,5S,6r)-3-(5,6-difluoro-1H-benzo[d]imidazol-1-yl)bicyclo[3.1.0]hexan-6-yl)methyl)-6-methylnicotinamide]: 200 to 2000 nM; for `CC[C@@H](NC(=O)c1ccc(F)cc1)[C@H]1[C@@H]2C[C@@H](n3cnc4cc(F)c(F)cc43)C[C@@H]21` [Compound 306, N—((R)-1-((3S,6s)-3-(5,6-difluoro-1H-benzo[d]imidazol-1-yl)bicyclo[3.1.0]hexan-6-yl)propyl)-4-fluorobenzamide]: under 200 nM. With `CCC(NC(=O)c1ccc(C#N)cc1)[C@H]1[C@@H]2C[C@@H](Oc3ncnc4ccc(F)cc34)C[C@@H]21` (stereo partly drawn) [Compound 66, 4-cyano-N-(1-((1R,3s,5S,6r)-3-((6-fluoroquinazolin-4-yl)oxy)bicyclo[3.1.0]hexan-6-yl)propyl)benzamide] the figure was under 200 nM; with `CC[C@@H](NC(=O)c1ccc(Cl)cc1)[C@H]1[C@@H]2C[C@@H](c3ncnc4ccc(F)cc34)C[C@@H]21` [Compound 279, 4-chloro-N-((R)-1-((1R,3S,5S,6r)-3-(6-fluoroquinazolin-4-yl)bicyclo[3.1.0]hexan-6-yl)propyl)benzamide], under 200 nM; with `CC[C@@H](NC(=O)c1ccc(Cl)cc1)[C@H]1[C@@H]2C[C@H](c3ccnc4ccc(F)cc34)C[C@@H]21` [Compound 286, 4-chloro-N-((R)-1-((1R,3R,5S,6r)-3-(6-fluoroquinolin-4-yl)bicyclo[3.1.0]hexan-6-yl)propyl)benzamide], under 200 nM. In turn, `CC[C@@H](NC(=O)c1ccc(Cl)cc1)[C@H]1[C@@H]2C[C@@H](n3cc(Br)cn3)C[C@@H]21` [Compound 329, N-((R)-1-((1R,3S,5S,6r)-3-(4-bromo-1H-pyrazol-1-yl)bicyclo[3.1.0]hexan-6-yl)propyl)-4-chlorobenzamide] yielded a half-inhibitory concentration (IC50) of under 200 nM.

For the molecule `CC(NC(=O)c1ccc(C#N)cc1)C1[C@H]2CC(O)C[C@@H]12` (stereo partly drawn) [Compound 105, 4-cyano-N-(1-((1R,3r,5S,6r)-3-hydroxybicyclo[3.1.0]hexan-6-yl)ethyl)benzamide], the IC50 was over 5000 nM. With `O=C(NC(CCO)[C@H]1[C@@H]2C[C@@H](n3ncc(=O)c4ccccc43)C[C@@H]21)c1ccc(Cl)cc1` (stereo partly drawn) [Compound 140, 4-chloro-N-(3-hydroxy-1-((1R,3s, 5S, 6r)-3-(4-oxocinnolin-1(4H)-yl)bicyclo[3.1.0]hexan-6-yl)propyl)benzamide] the figure was under 200 nM; with `CCC(NC(=O)c1ccc(Cl)cc1)[C@H]1[C@@H]2C[C@@H](Oc3cccnc3Cl)C[C@@H]21` (stereo partly drawn) [Compound 60, 4-chloro-N-(1-((1R,3s,5S,6r)-3-((2-chloropyridin-3-yl)oxy)bicyclo[3.1.0]hexan-6-yl)propyl)benzamide], under 200 nM; with `CCC(NC(=O)c1ccc(Cl)cc1)[C@H]1[C@@H]2C[C@@H](Oc3c(F)cccc3F)C[C@@H]21` (stereo partly drawn) [Compound 44, 4-chloro-N-(1-((1R,3s,5S,6r)-3-(2,6-difluorophenoxy)bicyclo[3.1.0]hexan-6-yl)propyl)benzamide], under 200 nM. The same measure for `CCC(NC(=O)c1ccc(Cl)cc1)[C@H]1[C@@H]2C[C@@H](N3C(=O)C(=O)c4ccccc43)C[C@@H]21` (stereo partly drawn) [Compound 114, 4-chloro-N-(1-((1R,3s,5S,6r)-3-(2,3-dioxoindolin-1-yl)bicyclo[3.1.0]hexan-6-yl)propyl)benzamide]: 200 to 2000 nM; for `C[C@@H](NC(=O)c1ccc(C#N)cc1)[C@H]1[C@@H]2C[C@@H](c3ccnc4ccc(F)cc34)C[C@@H]21` [Compound 278, 4-cyano-N-((R)-1-((1R,3S,5S,6r)-3-(6-fluoroquinolin-4-yl)bicyclo[3.1.0]hexan-6-yl)ethyl)benzamide]: under 200 nM. `CCC(NC(=O)c1ccc(Cl)cc1)[C@H]1[C@@H]2C[C@@H](Oc3ccnc(C)c3)C[C@@H]21` (stereo partly drawn) [Compound 15, 4-chloro-N-(1-((1R,3s,5S,6r)-3-((2-methylpyridin-4-yl)oxy)bicyclo[3.1.0]hexan-6-yl)propyl)benzamide] yielded a half-inhibitory concentration (IC50) of under 200 nM. With `O=S(=O)(Cc1ccc(Br)cc1)NC1C2CC(Oc3ccnc4ccccc34)CC21` (stereo not drawn) [Compound 27, 1-(4-bromophenyl)-N-(3-(quinolin-4-yloxy)bicyclo[3.1.0]hexan-6-yl)methanesulfonamide] the figure was over 5000 nM; with `CCC(NC(=O)c1ccc(Cl)cc1)[C@H]1[C@@H]2C[C@@H](n3ncc4cnccc43)C[C@@H]21` (stereo partly drawn) [Compound 51, N-(1-((1R,3s,5S,6r)-3-(1H-pyrazolo[4,3-c]pyridin-1-yl)bicyclo[3.1.0]hexan-6-yl)propyl)-4-chlorobenzamide], under 200 nM; with `CC[C@@H](NC(=O)C1(C(F)(F)F)CC1)[C@H]1[C@@H]2C[C@@H](n3cnc4cc(F)c(F)cc43)C[C@@H]21` [Compound 352, N-((R)-1-((1R,3S,5S,6r)-3-(5,6-difluoro-1H-benzo[d]imidazol-1-yl)bicyclo[3.1.0]hexan-6-yl)propyl)-1-(trifluoromethyl)cyclopropane-1-carboxamide], 200 to 2000 nM. With `CC[C@@H](NC(=O)c1ccc(Cl)cc1)[C@H]1[C@@H]2C[C@@H](n3nccc3C3CC3)C[C@@H]21` [Compound 342, 4-chloro-N-((R)-1-((1R,3S,5S,6r)-3-(5-cyclopropyl-1H-pyrazol-1-yl)bicyclo[3.1.0]hexan-6-yl)propyl)benzamide] the figure was under 200 nM. `CCC(NC(=O)c1ccc(Cl)cc1)[C@H]1[C@@H]2C[C@@H](Nc3ccc(Cl)cc3[N+](=O)[O-])C[C@@H]21` (stereo partly drawn) [Compound 270, 4-chloro-N-(1-((1R,3s,5S,6r)-3-((4-chloro-2-nitrophenyl)amino)bicyclo[3.1.0]hexan-6-yl)propyl)benzamide] came in with an IC50 of under 200 nM. With `CCC(NC(=O)c1ccc(C#N)cc1)[C@H]1[C@@H]2C[C@@H](n3cnc4ccc(F)cc4c3=O)C[C@@H]21` (stereo partly drawn) [Compound 67, 4-cyano-N-(1-((1R,3s,5S,6r)-3-(6-fluoro-4-oxoquinazolin-3(4H)-yl)bicyclo[3.1.0]hexan-6-yl)propyl)benzamide] the figure was under 200 nM. `CC[C@@H](NC(=O)c1ccc(Cl)cc1)[C@H]1[C@@H]2C[C@@H](Nc3cc(Cl)ccc3[N+](=O)[O-])C[C@@H]21` [Compound 284, 4-chloro-N-((R)-1-((1R,3S,5S,6r)-3-((5-chloro-2-nitrophenyl)amino)bicyclo[3.1.0]hexan-6-yl)propyl)benzamide]: the IC50 was under 200 nM.

Regarding `C[C@H](C(=O)Nc1ccc(Cl)cc1)[C@H]1[C@@H]2C[C@@H](n3cnc4cc(F)c(F)cc43)C[C@@H]21` [Compound 299, (S)-N-(4-chlorophenyl)-2-((1R,3R,5S,6r)-3-(5,6-difluoro-1H-benzo[d]imidazol-1-yl)bicyclo[3.1.0]hexan-6-yl)propanamide], the IC50 was under 200 nM.

Molecule `CC[C@@H](NC(=O)c1ccc(C#N)cc1)[C@H]1[C@@H]2C[C@@H](n3c(C)nc4ccc(C#N)cc43)C[C@@H]21` [Compound 293, 4-cyano-N-((R)-1-((1R,3S,5S,6r)-3-(6-cyano-2-methyl-1H-benzo[d]imidazol-1-yl)bicyclo[3.1.0]hexan-6-yl)propyl)benzamide] gave a half-inhibitory concentration (IC50) of 200 to 2000 nM.

For the molecule `CCC(NC(=O)c1ccc(Cl)cc1)[C@H]1[C@@H]2C[C@@H](NS(C)(=O)=O)C[C@@H]21` (stereo partly drawn) [Compound 159, 4-chloro-N-(1-((1R,3s,5S,6r)-3-(methylsulfonamido)bicyclo[3.1.0]hexan-6-yl)propyl)benzamide], the IC50 was 200 to 2000 nM. The same measure for `CC[C@@H](NC(=O)c1ccc(Cl)cc1)[C@H]1[C@@H]2C[C@@H](Nc3ccccc3C(=O)O)C[C@@H]21` [Compound 346, 2-(((1R,3S,5S,6r)-6-((R)-1-(4-chlorobenzamido)propyl)bicyclo[3.1.0]hexan-3-yl)amino)benzoic acid]: under 200 nM.
